Among the data in patent US20100048564A1, “FUSED BICYCLIC HETEROARYL DERIVATIVE” (DAIICHI SANKYO COMPANY, LIMITED, priority 2007, published 2010) are EC50 and Emax values, retold here.

Where two headings read alike, the source gives them in different places.

The test system of one assay is Rat white adipocytes. Briefly: Adipocyte differentiation promotion test (Test Example 4). Type of assay: cell-based. Conditions: for EC50: 120 h. As for the experimental part:
Rat white adipocytes included in a white adipocyte culture kit purchased from Primary Cell Co., Ltd. were subjected to this test. A medium included in the white adipocyte culture kit purchased from Primary Cell Co., Ltd. was used as a growth medium or a differentiation-inducing medium.
The whole of the transportation medium was extracted immediately after the arrival of the purchased cells. The growth medium was added in an amount of 5 ml(/25 cm^2-flask), and the cells were cultured for one day. Thereafter, a cell suspension (83,000 cells/mL) was prepared using the growth medium. The cell suspension was dispensed to a 96-well type-I collagen-coated microplate (SUMITOMO BAKELITE Co., Ltd.) at 5,000 cells/well (60 μL/well). A well to which only the growth medium not containing cells was dispensed (blank well) was provided as a blank group in each plate.
Further, 1) for the test compound-added group, a 100 μM solution of the test compound in DMSO was diluted 20-fold with the differentiation-inducing medium; this was added at 3 μL/well (final test compound concentration: 100 nM, final DMSO concentration: 0.1% (v/v)) to the wells into which the cells were seeded. […] 3) For the negative control group, DMSO diluted 20-fold with the differentiation-inducing medium was added at 3 μL/well (final DMSO concentration: 0.1% (v/v)) to the wells into which the cells were seeded.
After culturing for five days, the whole of the differentiation-inducing medium was removed from each well, and 60 μL of a 10% (v/v) formaldehyde solution (fixative solution) was added to each well. The cells were incubated at room temperature for 20 minutes. The whole of the fixative solution was removed and 60 μL of a 0.2% (v/v) Triton X-100 solution (Sigma) was dispensed to each well. The cells were incubated at room temperature for five minutes. The whole of the Triton X-100 solution was removed. A fat stain was prepared by dissolving Oil Red 0 (Sigma) in a 60% (v/v) isopropanol solution at 0.3% (w/v), and 60 μL of the fat stain was dispensed to each well. The cells were incubated at room temperature for 10 minutes. The whole of the fat stain was removed, and then 60 μL of a 60% (v/v) isopropanol solution was dispensed and removed. Thus, each well was washed twice. Thereafter, DMSO was added to each well at 100 μL per well, followed by stirring at room temperature for five minutes. […] The degree of adipocyte differentiation (%) of the test compound-added group was calculated assuming that the measured ABS550 of the positive control group was 100% and the measured ABS550 of the negative control group was 0.

Assay [1] deals with T1, GAL4-PPARγ chimeric receptor (Homo sapiens, UniProt P37231).
T1 construct: containing amino acids 175 to 475 of human PPARγ and a stop codon at the carboxy end; expressed in transfected cells; host or cells: COS-7 (monkey kidney) cells, transfected with pM-PPARγ and pFR-Luc
T1 sequence (P37231 with tags, fused parts or gaps): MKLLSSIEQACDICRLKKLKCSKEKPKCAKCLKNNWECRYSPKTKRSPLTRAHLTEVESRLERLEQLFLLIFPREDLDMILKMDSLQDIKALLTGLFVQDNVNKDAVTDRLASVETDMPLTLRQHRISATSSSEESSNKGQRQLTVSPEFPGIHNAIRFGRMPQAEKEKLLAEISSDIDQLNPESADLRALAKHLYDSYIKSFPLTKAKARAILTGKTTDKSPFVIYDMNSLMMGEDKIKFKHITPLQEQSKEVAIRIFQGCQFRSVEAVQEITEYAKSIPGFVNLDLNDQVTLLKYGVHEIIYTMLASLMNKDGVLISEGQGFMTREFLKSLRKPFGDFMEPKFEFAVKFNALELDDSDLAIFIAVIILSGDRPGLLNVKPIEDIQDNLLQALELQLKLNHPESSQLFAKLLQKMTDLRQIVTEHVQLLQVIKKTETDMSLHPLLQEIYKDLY
Briefly: Measurement of PPARγ activation effect/modulator activity, GAL4-PPARγ reporter assay in COS-7 cells (Test Example 5). Type of assay: cell-based. Conditions: for Emax: COS-7. As for the experimental part: The details will be shown below.
The plasmid is a gene that can express a GAL4-PPARγ chimeric receptor in mammalian cells.
The previously acquired plasmid pM-PPARγ and the plasmid pFR-Luc purchased from Stratagene Cloning Systems, Inc. were dissolved in deionised water at a concentration of 1 mg/mL each.
On the following day, the cells were harvested by trypsin treatment, suspended in phenol red-free Dulbecco's modified Eagle's medium containing […] 10% fetal bovine serum, seeded into a white 96-well plate (manufactured by Costar) using the medium in a volume of 95 μL per well, and cultured overnight.
The test compound was dissolved in dimethyl sulfoxide at a concentration of 30 mM. […] Dimethyl sulfoxide was prepared for the control group. Rosiglitazone dissolved in dimethyl sulfoxide at a concentration of 30 mM was prepared for the positive control group. They were diluted 150-fold with the medium, and 5 μL of the dilution was added to the wells in which the cells were grown. The concentrations of the test compound treating the cells ranged from 10 μM to 0.006 nM. After the addition, the cells were cultured overnight.
On the following day, the medium was removed, and Luc Lite (manufactured by PerkinElmer Inc.) was prepared according to the attached document and added at 50 microliters per well. The plates with cells in the Luc Lite was stirred for about 30 minutes. The amount of luminescence in each well was measured as luciferase activity using Analyst (Molecular Devices) for 0.5 second. A dose-dependent curve was drawn.

Setting [2] is: Adipocyte, rat white adipocytes, test compound alone, 5 days, Oil Red O ABS550, read-out: EC50.
The mark [3] stands for this setting: Rattus norvegicus, degree of adipocyte differentiation, positive control (Compound A 3.3 nM) 100%, negative control 0, read-out: Emax (%).
Setting [4] is: maximum luciferase activity, positive control (Rosiglitazone) 100%, control 0%, read-out: Emax (%).
[5] abbreviates: COS-7 cells with pM-PPARγ and pFR-Luc, concentration represented by Emax/2, read-out: EC50.

For the molecule `Cc1cc(Oc2ccc3nc(COc4cccc(C(=O)O)c4)n(C)c3c2)cc(C)c1N.Cl.Cl` [Example 2, 3-{[6-(4-Amino-3,5-dimethylphenoxy)-1-methyl-1H-benzimidazol-2-yl]methoxy}benzoic acid dihydrochloride], the EC50 in the assay on Rat white adipocytes (setting [2]) worked out at 4.2 nM; in assay [1] (setting [5]), 299000 pM. The figures for the maximal response (Emax) (with Rat white adipocytes (setting [3]); in assay [1] (setting [4])) were 73% and 73.3%, respectively.

Take `Cl.Cn1c(COc2cccc(C(=O)O)c2)nc2ccc(Oc3ccc(F)c(Cl)c3)cc21` [Example 12, 3-{[6-(3-Chloro-4-fluorophenoxy)-1-methyl-1H-benzimidazol-2-yl]methoxy}benzoic acid hydrochloride]: the results for the EC50 (with Rat white adipocytes (setting [2]); in assay [1] (setting [5])) were 5.2 nM and 39700 pM, respectively. Moreover, the figures for the Emax (in the assay with Rat white adipocytes (setting [3]); in assay [1] (setting [4])) were 82% and 60.2%, respectively.

Take `Cl.Cl.Cn1c(COc2cccc(C(=O)O)c2)nc2ccc(Oc3ccccc3)nc21` [Example 16, 3-[(3-Methyl-5-phenoxy-3H-imidazo[4,5-b]pyridin-2-yl)methoxy]benzoic acid dihydrochloride]: the EC50 was determined as 64 nM in the assay with Rat white adipocytes (setting [2]) and 550000 pM in assay [1] (setting [5]). In addition, the maximal effect (Emax) worked out at 71% in the assay on Rat white adipocytes (setting [3]) and 60.9% in assay [1] (setting [4]).

With `Cl.Cn1c(COc2cccc(C(=O)O)c2)nc2ccc(Oc3cccc(F)c3)cc21` [Example 8, 3-{[6-(3-Fluorophenoxy)-1-methyl-1H-benzimidazol-2-yl]methoxy}benzoic acid hydrochloride], the EC50 stood at 7.4 nM in the assay with Rat white adipocytes (setting [2]) and 4.74e+06 pM in assay [1] (setting [5]). For the same molecule, the Emax stood at 75% with Rat white adipocytes (setting [3]) and 91% in assay [1] (setting [4]).

Turning to `Cl.Cn1c(COc2cccc(C(=O)O)c2)nc2ccc(Oc3ccc(Cl)c(F)c3)cc21` [Example 10, 3-{[6-(4-Chloro-3-fluorophenoxy)-1-methyl-1H-benzimidazol-2-yl]methoxy}benzoic acid hydrochloride], the values for the EC50 (with Rat white adipocytes (setting [2]); in assay [1] (setting [5])) were 6.6 nM and 67000 pM, respectively. The Emax in the assay on Rat white adipocytes (setting [3]) was 78%; in assay [1] (setting [4]) it was 46.5%.

Turning to `Cl.Cn1c(COc2cccc(C(=O)O)c2)nc2ccc(Oc3ccccc3)cc21` [Example 14, 3-[(1-Methyl-6-phenoxy-1H-benzimidazol-2-yl)methoxy]benzoic acid hydrochloride], the Emax in the assay on Rat white adipocytes (Rattus norvegicus, Adipocyte) came out at 56%; in assay [1], 89.6%. Also, the EC50 with Rat white adipocytes (Rattus norvegicus, Adipocyte) was determined as 20 nM; in assay [1] it was 845000 pM.
